Test results as given in publication PMC12314576, “The Actin‐Binding Prolyl‐Isomerase Par17 Sustains Its Substrate Selectivity by Interdomain Allostery” (Proteins, 2025).
Starred links: 1 amine or outer side, 2 acyl side, 3 side chain; linkers in the order of their positions; H or OH if unused. Residues, ends and D or L forms follow the SMILES beside them. *: point of attachment. pNA = O=[N+]([O-])c1ccc(N*)cc1; Suc = O=C(CCC(=O)[*:2])[*:1]

Legend:
[1] = system: Par17Δ61–156; experiment: NMR titration of substrate peptides to 15N-labeled N-terminus of Par17; type: binding, human; details: 15N-BEST-TROSY-HSQC, 50 mM KPi pH 6.7, 20°C; protein 0.3 mM, substrate 3 mM
Description: To elucidate the physical nature of the chemical shift changes in Par17 upon the addition of selected substrate peptides, we investigated whether the isolated N‐terminus of Par17 (Par17Δ61–156) is also capable of binding various substrates on its own. […] This indicates the existence of an independent binding epitope located within the N‐terminus.
In the next step, we studied if this binding epitope is selectively interacting with peptides carrying Xaa‐Pro motifs. We already knew from former studies that model peptides carrying alanine instead of proline in the Xaa position are capable of binding to the hydrophobic catalytic center without being catalyzed.
For NMR measurements, purified and concentrated proteins in salt‐free buffers were mixed with 10% D2O and 1 μL DSS standard. Spectra were measured on an ultra shield 700‐NMR (Bruker, Billerica, US) with a triple resonance cryoprobe (700 MHz). For recording and processing of data, the software Topspin 3.5 was used. Analysis of spectra was carried out using Cara analysis software 2.3.1 (Rochus L.J. Keller) and/or CcpNmr Analysis 2.3.1 (Department of Molecular and Cell Biology, University of Leicester, UK). […]
They were added stepwise to 200 μL of the labeled parvulins (300 μM in 50 mM KPi buffer pH 6.7). Spectra were recorded with the pulse program Best‐TROSY at 20°C. Combined chemical shifts were calculated as described. […]

[2] = target: T1, Par17 (Homo sapiens, UniProt Q9Y237); experiment: Protease-coupled isomerase assay (PPIase assay) with Par17; type: biochemical; details: for k cat/K M of Par17, times higher than for Leu‐Pro, Gln‐Pro or His‐Pro peptides: ratio of k cat/K M values; for k = kobserved - kthermic, Par17: α-chymotrypsin 35 μM, PBS pH 6.8, 10°C, substrate 75 μM, PPIase 2 μM, absorbance 390 nm, mean ± SD
T1 construct: full‐length Par17 and the N‐terminus of Par17; GST-His6 (PreScission site) (N, cleaved yes); Gly-Pro remnant of the PreScission site (Gly stands at position 1 in place of Met1); made in house; host or cells: E. coli BL21 (DE3) T1r
T1 sequence (Q9Y237 1-156 isoform Q9Y237-2): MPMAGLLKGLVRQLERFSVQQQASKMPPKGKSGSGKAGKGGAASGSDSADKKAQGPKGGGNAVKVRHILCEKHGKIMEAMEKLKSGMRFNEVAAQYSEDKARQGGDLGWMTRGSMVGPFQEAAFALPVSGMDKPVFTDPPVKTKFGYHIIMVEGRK
Experimental: (§1) To determine the catalytic efficiency and substrate specificity of Par14 and Par17, we performed a protease‐coupled assay. In this assay, the trans form of a para‐nitroaniline (pNA) tagged model substrate is cleaved by chymotrypsin, and the resulting change in absorption at 390 nm due to free pNA is measured. When the model substrate is added to the protease‐containing buffer, all trans‐Xaa‐Pro isomers are immediately cleaved by chymotrypsin. Therefore, the extent of the first signal burst observed in the absorption spectrum correlates with the amount of trans isomers of the model substrate formed during the experimental dead time. The remaining cis‐Xaa substrates now start to isomerize by thermal (in the absence of PPIase) or catalytic reaction (in the presence of PPIase). The newly formed trans‐Xaa substrates are immediately cleaved, and isomerization can thus be monitored over time (Figure 2). Eighteen different substrate peptides with varying amino acids at the Xaa position (Suc‐Ala‐Xaa‐Pro‐Phe‐pNa) were measured to determine the isomerase activity and substrate selectivity of Par14 (Par17Δ1–25), Par17, and the catalytic domain (Par17Δ1–60) (Table S1). The catalytic efficiency is obtained from the observed isomerization curves by calculating the difference between the rate constant in the presence of enzyme and the rate constant obtained from thermal isomerization.
(§2) We determined the isomerase activity using the PPIase assay described by. The lyophilized peptides were dissolved in an adequate volume of 0.5 mM‐LiCl/TFE buffer to obtain a 15 mM stock solution. To achieve a stable cis/trans ratio the mixture was incubated overnight at 4°C. The next day a stock solution of 350 μM α‐chymotrypsin in PBS was incubated on ice for at least 20 min. For measurements without PPIase PBS buffer (pH 6.8) was mixed with α‐chymotrypsin to a final concentration of 35 μM in 1 mL. A baseline was recorded for 5 min (Cary 100Bio UV/Vis spectrophotometer, Varian/Agilent, Santa Clara, US, λ: 390 nm, bandwidth: 1.0 nm, average time between measurements: 0.5 s, temperature: 10°C). After 5 min the substrate peptide was added to a final concentration of 75 μM in 1 mL [59]. The solution was mixed by inverting the cuvette three times and the reaction was recorded for 15 min. Measurements in the presence of PPIase were performed in the same way, except that before the baseline measurement, the appropriate isomerase was added in a final concentration of 2 μM in 1 mL in addition to PBS and α‐chymotrypsin.
(§3) For the data analysis, a mean value of the baseline was subtracted (average of the first 200 data points). The measured values were normalized according to the respective maximum of the measurement. To determine the rate constant, the program graph pad was used, and non‐linear curve fitting was applied for each measurement (exponential, one‐phase association). (1) Y=Y0+Plateau−Y0∙1−e^−K∙x
(§4) where x is the time (min), Y is the absorbance, Y 0 is the absorbance when x = 0, Plateau is the Y value at infinite times, K is the rate constant (min^−1).
(§5) The K cat/K M value was calculated according to Equation (2): (2) kcat/KM=kobs−ktherm/PPIase where k cat/K M is the catalytic efficiency (M^−1 s^−1), k obs, rate constant of the observed reaction (s^−1), k therm is the rate constant of the thermic reaction (s^−1), and [PPIase] is the concentration of PPIase used in the assay (M).
(§6) The obtained data are fitted to Equation (2) using a pseudo first‐order assumption. This is the case, if k obs values behave linearly with rising PPIase concentrations.

[3] = target: T2, Par14 (Par17Δ1-25) (Homo sapiens, UniProt Q9Y237); experiment: Protease-coupled isomerase assay (PPIase assay) with Par14; type: biochemical; details: α-chymotrypsin 35 μM, PBS pH 6.8, 10°C, substrate 75 μM, PPIase 2 μM, absorbance 390 nm; mean ± SD
T2 construct: Comparison of spectra of full‐length parvulin proteins and PPIase domain; GST-His6 (PreScission site) (N, cleaved yes); made in house; host or cells: E. coli BL21 (DE3) T1r
T2 sequence (Q9Y237 whole entry, stated change not applied, the tested form may be a part): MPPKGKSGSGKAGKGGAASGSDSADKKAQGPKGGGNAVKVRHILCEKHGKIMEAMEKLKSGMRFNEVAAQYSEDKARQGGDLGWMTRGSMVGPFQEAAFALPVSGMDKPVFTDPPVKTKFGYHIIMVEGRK
Experimental: as §1, §2, §3, §4, §5, §6

[4] = target: T3, PPIase domain (Par17Δ1-60) (Homo sapiens, UniProt Q9Y237); experiment: Protease-coupled isomerase assay (PPIase assay) with the catalytic domain; type: biochemical; details: α-chymotrypsin 35 μM, PBS pH 6.8, 10°C, substrate 75 μM, PPIase 2 μM, absorbance 390 nm; mean ± SD
T3 construct: GST-His6 (PreScission site) (N, cleaved yes); made in house; host or cells: E. coli BL21 (DE3) T1r
T3 sequence (Q9Y237 36-131, stated change not applied): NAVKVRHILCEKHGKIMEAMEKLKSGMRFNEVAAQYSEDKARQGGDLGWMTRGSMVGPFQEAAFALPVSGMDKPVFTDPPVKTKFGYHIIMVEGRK
Experimental: as §1, §2, §3, §4, §5, §6

[5] = target: T1, Par17; experiment: NMR titration of substrate peptides to 15N-labeled full-length Par17; type: binding; details: 300 μM Par17, KPi pH 6.7, 20°C
Experimental: The amide signals were assigned and combined chemical shift changes between the signals of free and substrate‐bound isomers were calculated.
For NMR measurements, purified and concentrated proteins in salt‐free buffers were mixed with 10% D2O and 1 μL DSS standard. Spectra were measured on an ultra shield 700‐NMR (Bruker, Billerica, US) with a triple resonance cryoprobe (700 MHz). For recording and processing of data, the software Topspin 3.5 was used. Analysis of spectra was carried out using Cara analysis software 2.3.1 (Rochus L.J. Keller) and/or CcpNmr Analysis 2.3.1 (Department of Molecular and Cell Biology, University of Leicester, UK).
Titration of substrate peptides to ^ 15 N‐labeled full‐length Par17 and the N‐terminus of Par17: The following substrate peptides were diluted in salt‐free 50 mM KPi buffer pH 6.7 to a concentration of 15 mM (Suc: Succinyl, pNA: para‐Nitroanilin):
They were added stepwise to 200 μL of the labeled parvulins (300 μM in 50 mM KPi buffer pH 6.7). Spectra were recorded with the pulse program Best‐TROSY at 20°C. Combined chemical shifts were calculated as described. Microscopic dissociation constant K D was fitted with the following equation (assuming a 1:1 binding model): (4) ∆δ=∆δmax·P+x+KD−P+x+KD^2−4·x·P/2·P
where ∆δmax is the amplitude, P is the protein concentration, X is the concentration of the peptide.
Differences in chemical shift changes could be measured up to 0.001 ppm (error in peak picking). Changes were interpreted as significant if Δ > 0.004 ppm and when appearing consecutively in a linear sequence element.
The microscopic K D describes the binding affinity of the ligand to a single side of an amino acid.

| Compound | k cat/K M of Par17, times higher than for Leu‐Pro, Gln‐Pro or His‐Pro peptides [2] | k = kobserved - kthermic, Par17 [2] [min⁻¹] | k = kobserved - kthermic, Par14 (Par17Δ1-25) [3] [min⁻¹] | k = kobserved - kthermic, PPIase domain (Par17Δ1-60) [4] [min⁻¹] | Combined chemical shift perturbation of full length Par17, 115M ([5]; peptide 0,2 mM) | Combined chemical shift perturbation of full length Par17, 119F ([5]; peptide 0,2 mM) | Combined chemical shift perturbation of full length Par17, 115M ([5]; peptide 1 mM) | Combined chemical shift perturbation of full length Par17, 116V ([5]; peptide 1 mM) | Combined chemical shift perturbation of full length Par17, 119F ([5]; peptide 1 mM) | Combined chemical shift perturbation of full length Par17, 115M ([5]; peptide 2 mM) | Combined chemical shift perturbation of full length Par17, 116V ([5]; peptide 2 mM) | Combined chemical shift perturbation of full length Par17, 119F ([5]; peptide 2 mM) | Combined chemical shift perturbation of full length Par17, 115M ([5]; peptide 3 mM) | Combined chemical shift perturbation of full length Par17, 116V ([5]; peptide 3 mM) | Combined chemical shift perturbation of full length Par17, 119F ([5]; peptide 3 mM) | Combined chemical shift perturbation of full length Par17, 115M ([5]; peptide 4 mM) | Combined chemical shift perturbation of full length Par17, 119F ([5]; peptide 4 mM) | Combined chemical shift perturbation of full length Par17, 115M ([5]; peptide 5 mM) | Combined chemical shift perturbation of full length Par17, 119F ([5]; peptide 5 mM) | further results |
| --- | --- | --- | --- | --- | --- | --- | --- | --- | --- | --- | --- | --- | --- | --- | --- | --- | --- | --- | --- | --- |
| Suc–Ala–Glu–Ala–Phe–pNA [proline-free model peptide carrying alanine instead of proline] |  |  |  |  |  |  |  |  |  |  |  |  |  |  |  |  |  |  |  | binding to the N-terminal epitope of Par17 [1]: interact with the N‐terminal epitope |
| C[C@H](NC(=O)CCC(=O)O)C(=O)N[C@@H](CCCCN)C(=O)N1CCC[C@H]1C(=O)N[C@@H](Cc1ccccc1)C(=O)Nc1ccc([N+](=O)[O-])cc1 [Lys, Suc‐Ala‐Lys‐Pro‐Phe‐pNa] | approximately 10 times | 0.33 ± 0.012 | 0.412 ± 0.014 | 0.442 ± 0.006 | 0,00414271 ppm | 0,00604921 ppm | 0,01818939 ppm | 0,06817833 ppm | 0,02459781 ppm | 0,03362789 ppm | 0,13037308 ppm | 0,04192915 ppm | 0,04495973 ppm | 0,18551846 ppm | 0,05880948 ppm | 0,05828389 ppm | 0,07526515 ppm | 0,06478417 ppm | 0,08126177 ppm | Combined chemical shift perturbation of full length Par17, 116V ([5]; peptide 4 mM): 0,23776807 ppm |
| C[C@H](NC(=O)CCC(=O)O)C(=O)N[C@@H](CCCNC(=N)N)C(=O)N1CCC[C@H]1C(=O)N[C@@H](Cc1ccccc1)C(=O)Nc1ccc([N+](=O)[O-])cc1 [Arg, Suc‐Ala‐Arg‐Pro‐Phe‐pNa] (Suc-ARPF-pNA) | approximately 10 times | 0.470 ± 0.037 | 0.582 ± 0.094 | 0.683 ± 0.064 | 0,0060079 ppm | 0,00418543 ppm | 0,0143348 ppm | 0,13037308 ppm | 0,01835824 ppm | 0,02655282 ppm | 0,18551846 ppm | 0,03376697 ppm | 0,03809928 ppm | 0,23776807 ppm | 0,04577626 ppm | 0,0454705 ppm | 0,05474353 ppm | 0,0546769 ppm | 0,06351885 ppm | Combined chemical shift perturbation of full length Par17, 115M ([5]; peptide 0,4 mM): 0,00801333 ppm; Combined chemical shift perturbation of full length Par17, 116V ([5]; peptide 0,4 mM): 0,06817833 ppm; Combined chemical shift perturbation of full length Par17, 119F ([5]; peptide 0,4 mM): 0,00841748 ppm |
